The values that follow come from patent publication US20210008145A1, “EDICINE COMPOSITION FOR TREATMENT OF HUMAN PAPILLOMAVIRUS INFECTION AND PREPARATION METHOD THEREOF” (Jiangsu Zhengyang Pharmaceutical Co., Ltd., priority 2018, published 2021).

For this assay, the system named is HeLa cells. The assay is described as follows: MTT assay, inhibition of HeLa cell proliferation. The class given is cell-based. The following applies: Homo sapiens, crude drug 25 g/L (cidofovir 10 μmol/mL), read-out: inhibition percentage on HeLa cell proliferation. How it is done:
The percentage inhibition on HeLa cell proliferation for each compound prepared in Examples 1-7 was determined by MTT assay (MTT Cell Proliferation and Cytotoxicity Assay Kit). HeLa cells was cultured in a 96-well plate for 6.0×10^3 cells per well, and allowed to adhere to the surface of the 96-well plate. Serum-free medium was added to each well of control group. Cidofovir was diluted in purified water such that the final concentration of cidofovir in the assay was 10 μmol/mL, and the resulting solution was added to each well of positive control group. Each compound of Examples 1-7 was diluted in water to a crude drug concentration of 25 g/L, and the resulting solution was added to the 96-well plate for a final volume of 200 μL per well. 200 μL of complete medium was only added to each well of blank control group. Each experimental group was done in 6 well replicates. After incubation of 24, 48, and 72 hours, 20 μL of 5 g/L MTT was added to each well and the plates were further incubated at 37° C. for 4 hours. Following discarding the supernatant, 200 μL of dimethyl sulfoxide (DMSO) was added to each well and the plates were shaken sufficiently as so to dissolve the crystals. Absorbance (A) of the wells at 490 nm was measured. These measurements then are used to calculate the percentage inhibition of cell growth: percentage inhibition=1−[…]×100%, where TA refers to the average absorbance of treatment group, and CA refers to the average absorbance of control group.
A general note: Formazan colour is commonly taken as a measure of viable cells.

The structures appear in SMILES notation. Read-outs that look alike come from different tables or passages of the source.

As for `Nc1ccn(C[C@@H](CO)OCP(=O)(O)O)c(=O)n1` [Cidofovir], the inhibition at 25000 µg/mL by setting is: (24 hours) 32.2 ± 2.08%; (48 hours) 48.6 ± 3.5%; (72 hours) 58.1 ± 3.21%.
